Test system: healthy subjects
Test: Symptom Checklist-90 item (SCL-90)
Type: in vivo, human
Source text: In some embodiments, the Symptom Checklist-90 item (SCL-90) questionnaire is used to evaluate the safety and/or efficacy of psilocybin. The SCL-90 is a relatively brief self-report psychometric instrument designed to evaluate a broad range of psychological problems and symptoms of psychopathology. In some embodiments, the SCL-90 is used to assess somatization, obsessive-compulsive behaviors, interpersonal sensitivity, depression, anxiety, hostility, phobic anxiety, paranoid ideation, and psychoticism of a subject treated according to the methods of the disclosure. The 90 items in the questionnaire are scored on a 5-point Likert scale, indicating the rate of occurrence of the symptom during the time reference. In some embodiments, after treating according to the methods of the disclosure, a subject's SCL-90 score decreases by about 5% to about 100%, for example, by about 5%, about 10%, about 15%, about 20%, about 25%, about 30%, about 35%, about 40%, about 45%, about 50%, about 55%, about 60%, about 65%, about 70%, about 75%, about 80%, about 85%, about 90%, about 95%, or about 100%.
The Neuroticism Extraversion Openness-Five Factor Inventory (NEO-FFI) and Symptom Checklist-90 Item (SCL-90) were administered. Details of the MMRM applied to the change from baseline scores for the NEO-FFI and SCL-90 are provided below in Table 28.

## CN(C)CCc1c[nH]c2cccc(OP(=O)(O)O)c12 [psilocybin]
Day 7
  SCL-90 - somatisation change from baseline, difference Psilocybin 10 mg - Placebo: 0.1
  SCL-90 - somatisation change from baseline, difference Psilocybin 25 mg - Placebo: 0.1
  SCL-90 - somatisation change from baseline, difference Psilocybin (25 mg-10 mg): −0.0
  SCL-90 anger hostility change from baseline, difference Psilocybin 10 mg - Placebo: −0.0
  SCL-90 anger hostility change from baseline, difference Psilocybin 25 mg - Placebo: −0.0
  SCL-90 anger hostility change from baseline, difference Psilocybin (25 mg-10 mg): 0.0
  SCL-90 anxiety change from baseline, difference Psilocybin 10 mg - Placebo: −0.0
  SCL-90 anxiety change from baseline, difference Psilocybin 25 mg - Placebo: 0.0
  SCL-90 anxiety change from baseline, difference Psilocybin (25 mg-10 mg): 0.0
  SCL-90 depression change from baseline, difference Psilocybin 10 mg - Placebo: 0.0
  SCL-90 depression change from baseline, difference Psilocybin 25 mg - Placebo: 0.0
  SCL-90 depression change from baseline, difference Psilocybin (25 mg-10 mg): −0.0
  SCL-90 interpersonal sensitivity change from baseline, difference Psilocybin 10 mg - Placebo: −0.0
  SCL-90 interpersonal sensitivity change from baseline, difference Psilocybin 25 mg - Placebo: 0.0
  SCL-90 interpersonal sensitivity change from baseline, difference Psilocybin (25 mg-10 mg): 0.1
  SCL-90 obsessive compulsive change from baseline, difference Psilocybin 10 mg - Placebo: 0.1
  SCL-90 obsessive compulsive change from baseline, difference Psilocybin 25 mg - Placebo: 0.1
  SCL-90 obsessive compulsive change from baseline, difference Psilocybin (25 mg-10 mg): −0.0
  SCL-90 paranoid ideation change from baseline, difference Psilocybin 10 mg - Placebo: 0.0
  SCL-90 paranoid ideation change from baseline, difference Psilocybin 25 mg - Placebo: 0.1
  SCL-90 paranoid ideation change from baseline, difference Psilocybin (25 mg-10 mg): 0.1
  SCL-90 phobic anxiety change from baseline, difference Psilocybin 10 mg - Placebo: −0.0
  SCL-90 phobic anxiety change from baseline, difference Psilocybin 25 mg - Placebo: 0.0
  SCL-90 phobic anxiety change from baseline, difference Psilocybin (25 mg-10 mg): 0.0
  SCL-90 psychoticism change from baseline, difference Psilocybin 10 mg - Placebo: 0.0
  SCL-90 psychoticism change from baseline, difference Psilocybin 25 mg - Placebo: 0.0
  SCL-90 psychoticism change from baseline, difference Psilocybin (25 mg-10 mg): 0.0
Day 84
  SCL-90 - somatisation change from baseline, difference Psilocybin 10 mg - Placebo: 0.0
  SCL-90 - somatisation change from baseline, difference Psilocybin 25 mg - Placebo: 0.0
  SCL-90 - somatisation change from baseline, difference Psilocybin (25 mg-10 mg): 0.0
  SCL-90 anger hostility change from baseline, difference Psilocybin 10 mg - Placebo: −0.0
  SCL-90 anger hostility change from baseline, difference Psilocybin 25 mg - Placebo: −0.0
  SCL-90 anger hostility change from baseline, difference Psilocybin (25 mg-10 mg): −0.0
  SCL-90 anxiety change from baseline, difference Psilocybin 10 mg - Placebo: −0.1
  SCL-90 anxiety change from baseline, difference Psilocybin 25 mg - Placebo: −0.0
  SCL-90 anxiety change from baseline, difference Psilocybin (25 mg-10 mg): 0.0
  SCL-90 depression change from baseline, difference Psilocybin 10 mg - Placebo: 0.0
  SCL-90 depression change from baseline, difference Psilocybin 25 mg - Placebo: 0.0
  SCL-90 depression change from baseline, difference Psilocybin (25 mg-10 mg): 0.0
  SCL-90 interpersonal sensitivity change from baseline, difference Psilocybin 10 mg - Placebo: −0.1
  SCL-90 interpersonal sensitivity change from baseline, difference Psilocybin 25 mg - Placebo: −0.0
  SCL-90 interpersonal sensitivity change from baseline, difference Psilocybin (25 mg-10 mg): 0.0
  SCL-90 obsessive compulsive change from baseline, difference Psilocybin 10 mg - Placebo: 0.1
  SCL-90 obsessive compulsive change from baseline, difference Psilocybin 25 mg - Placebo: 0.0
  SCL-90 obsessive compulsive change from baseline, difference Psilocybin (25 mg-10 mg): −0.1
  SCL-90 paranoid ideation change from baseline, difference Psilocybin 10 mg - Placebo: 0.1
  SCL-90 paranoid ideation change from baseline, difference Psilocybin 25 mg - Placebo: 0.1
  SCL-90 paranoid ideation change from baseline, difference Psilocybin (25 mg-10 mg): 0.0
  SCL-90 phobic anxiety change from baseline, difference Psilocybin 10 mg - Placebo: −0.0
  SCL-90 phobic anxiety change from baseline, difference Psilocybin 25 mg - Placebo: 0.0
  SCL-90 phobic anxiety change from baseline, difference Psilocybin (25 mg-10 mg): 0.0
  SCL-90 psychoticism change from baseline, difference Psilocybin 10 mg - Placebo: −0.0
  SCL-90 psychoticism change from baseline, difference Psilocybin 25 mg - Placebo: −0.0
  SCL-90 psychoticism change from baseline, difference Psilocybin (25 mg-10 mg): 0.0

— patent US11865126B2, “Method for treating anxiety disorders, headache disorders, and eating disorders with psilocybin” (priority 2019, dated 2024)
